Where two headings read alike, the source gives them in different places.
Key:
[1] = system: HIV; test: Antiviral assay, HIV-induced cytopathic effect in CEM cells (tetrazolium/formazan viability readout); assay type: cell-based; settings: Human immunodeficiency virus 1, CCRF-CEM; for IC90: read-out: IC₉₀
Protocol: (§1) The antiviral activity of the AZT prodrug was evaluated in the Retrovirus Research Laboratory at Southern Research Institute. The AZT prodrug (Structure 5) was tested against HIV in CEM cells in a standardized assay system. In this assay the CEM cells were grown in microtitre plates and incubated for 6 day with or without a HIV. The cells were incubated with prodrug or AZT at varying concentrations. After 6 days the percentage of viable cells was measured by employing a standardized assay based upon the conversion of a tetrazolium salt to a formazan chromaphore by viable cells. (T.Mossman; J.Immunol.Methods 65:55 (1983)) The production of the chromaphore was measured spectrophotometrically with a Molecular Devices Vmax plate reader at 570 nm. From the optical density data a computer program calculated the per cent reduction in viral cytopathic effect (CPE), the prodrugs cytotoxic effect, and IC₅₀ values.
The IC₅₀ value; defined as that concentration of drug inhibited the HIV induced CPE 50% was 24 nanamolar for the AZT prodrug. […] When the prodrug was added to the cell cultures 8 hours prior to infecting with HIV the IC₅₀ for the prodrug was 5 nanamolar. The IC9₉₀ for the prodrug was 10 nanamolar. The IC₅₀ for AZT under the same conditions was also 5 nanamolar. The IC₉₀ for AZT was 10 nanamolar. The data is summarized in the graph below for an experiment in which the prodrug or AZT were added 8 hours prior to the time of infection with the HIV. [formula] The graph below summarizes the results of an experiment in which the antiviral activity of the AZT prodrug was added 8 hours prior to infection or at the time of infection. [formula]

[2] = cited from earlier work
[3] = target: HIV reverse transcriptase (Human immunodeficiency virus type 1 group M subtype B, UniProt P04585); settings: read-out: concentration at which HIV reverse transcriptase is inhibited by 50%; cited from earlier work
[4] = target: T1, acetylcholinesterase (Gallus gallus, UniProt P36196); test: Acetylcholinesterase activity inhibition assay, chicken brain homogenate; assay type: biochemical; settings: at 10⁻⁵ M
T1 construct: tested for anticholinesterase acitivity in chicken brain homogenate and electric eel extract; from tissue; host or cells: chicken brain homogenate
T1 sequence (P36196 20-767): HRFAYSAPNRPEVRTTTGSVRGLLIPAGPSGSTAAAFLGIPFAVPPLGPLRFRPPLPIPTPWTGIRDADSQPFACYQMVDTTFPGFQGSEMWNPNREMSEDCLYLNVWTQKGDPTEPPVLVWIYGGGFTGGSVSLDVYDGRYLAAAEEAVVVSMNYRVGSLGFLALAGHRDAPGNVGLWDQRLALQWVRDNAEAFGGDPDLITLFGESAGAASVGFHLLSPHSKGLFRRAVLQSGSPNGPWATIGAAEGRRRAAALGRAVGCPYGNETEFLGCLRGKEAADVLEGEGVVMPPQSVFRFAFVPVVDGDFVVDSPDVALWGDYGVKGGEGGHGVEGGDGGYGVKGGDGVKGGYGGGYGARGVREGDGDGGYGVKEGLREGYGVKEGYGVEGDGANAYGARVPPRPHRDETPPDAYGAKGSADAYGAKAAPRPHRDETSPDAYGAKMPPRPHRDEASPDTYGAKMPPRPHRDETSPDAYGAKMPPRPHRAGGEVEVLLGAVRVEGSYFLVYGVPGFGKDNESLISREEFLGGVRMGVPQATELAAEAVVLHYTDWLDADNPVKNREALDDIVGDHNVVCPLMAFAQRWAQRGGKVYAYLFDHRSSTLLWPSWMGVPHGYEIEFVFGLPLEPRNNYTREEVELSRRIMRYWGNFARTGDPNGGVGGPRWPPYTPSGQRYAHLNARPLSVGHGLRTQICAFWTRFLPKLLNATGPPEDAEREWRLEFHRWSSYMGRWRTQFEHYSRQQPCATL
Protocol: (§2) The AZT prodrug was evaluated for anticholinesterase activity at the Laboratory of Neurotoxicology and Pharmacology at Duke University using a standard well established acetylcholinesterase activity inhibition assay. Elleman et. al.; Biochemical Pharmacology; 7:88 (1962) The prodrug was tested for anticholinesterase acitivity in chicken brain homogenate and electric eel extract.

[5] = Cytotoxicity in uninfected CEM cells (tetrazolium/formazan viability readout); assay type: cell-based; settings: human, 6 days, read-out: TC₅₀ (concentration that resulted in a 50% reduction of cell viability in uninfected cells)
Protocol: as §1
The IC₅₀ value; defined as that concentration of drug inhibited the HIV induced CPE 50% was 24 nanamolar for the AZT prodrug. […] When the prodrug was added to the cell cultures 8 hours prior to infecting with HIV the IC₅₀ for the prodrug was 5 nanamolar. The IC9₉₀ for the prodrug was 10 nanamolar. The IC₅₀ for AZT under the same conditions was also 5 nanamolar. The IC₉₀ for AZT was 10 nanamolar. […]

[6] = Acute toxicity in mice, intraperitoneal; assay type: in vivo; settings: IP
[7] = target: T2, acetylcholinesterase (Electrophorus electricus, UniProt O42275); test: Acetylcholinesterase activity inhibition assay, electric eel extract; assay type: biochemical; settings: at 10⁻⁵ M
T2 construct: tested for anticholinesterase acitivity in chicken brain homogenate and electric eel extract; from tissue
T2 sequence (O42275 24-633): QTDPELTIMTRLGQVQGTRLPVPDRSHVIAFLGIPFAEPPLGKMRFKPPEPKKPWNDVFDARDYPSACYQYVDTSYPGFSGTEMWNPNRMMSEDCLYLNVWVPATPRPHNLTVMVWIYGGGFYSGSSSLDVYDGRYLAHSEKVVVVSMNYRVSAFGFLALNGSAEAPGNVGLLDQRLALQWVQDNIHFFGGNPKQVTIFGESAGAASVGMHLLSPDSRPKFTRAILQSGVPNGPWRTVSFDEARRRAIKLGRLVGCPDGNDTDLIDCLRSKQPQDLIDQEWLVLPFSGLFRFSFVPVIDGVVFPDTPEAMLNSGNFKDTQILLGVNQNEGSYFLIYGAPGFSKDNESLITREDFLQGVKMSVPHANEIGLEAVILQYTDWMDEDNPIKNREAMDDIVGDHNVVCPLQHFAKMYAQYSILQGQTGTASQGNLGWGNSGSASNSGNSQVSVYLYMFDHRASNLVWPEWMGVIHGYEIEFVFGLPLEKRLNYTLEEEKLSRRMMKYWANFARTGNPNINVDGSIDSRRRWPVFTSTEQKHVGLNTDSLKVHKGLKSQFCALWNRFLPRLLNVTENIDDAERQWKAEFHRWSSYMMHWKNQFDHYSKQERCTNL
Protocol: as §2

[8] = added 8 hours prior to infecting with HIV, read-out: IC₅₀
[9] = added 8 hours prior to infecting with HIV

Cc1cn([C@H]2C[C@H](N=[N+]=[N-])[C@@H](CO)O2)c(=O)[nH]c1=O [AZT, 3'azido-3'deoxythymidine, reference compound]
IC50 [1, 8]: 5 nM
IC90 [1, 9]: 10 nM

COc1cc(C=CC(C)=O)ccc1O [methyl 4-hydroxy,3-methoxy-styryl ketone]
oral LD₅₀ [2]: > 2 grams/kg

O=C(O)P(=O)(O)O [Phosphonoformate]
IC50 [3]: < 2000 nM

CCOC(=O)CC(OP(=O)(OC[C@H]1O[C@@H](n2cc(C)c(=O)[nH]c2=O)C[C@@H]1N=[N+]=[N-])OC(CC(=O)OCC)c1ccc(OC(C)=O)cc1)c1ccc(OC(C)=O)cc1 (stereo partly drawn) [AZT prodrug]
IC50 ([1]; 144 h, 6 days, drug not added before infection, read-out: IC₅₀ (concentration that inhibited the HIV induced CPE 50%)): 24 nM
IC50 [1, 8]: 5 nM
IC90 [1, 9]: 10 nM
inhibition of acetylcholinesterase activity [4]: No inhibition
CC50 at 144 h [5]: 7800 nM
acute toxicity ([6]; mice, 100 mg/kg as an emulsion in 5% Emulphor EL 620): no acute toxicity
acute toxicity ([6]; one mouse, 300 mg/kg, 24 hour period of observation): without evident acute toxicity
inhibition of acetylcholinesterase activity [7]: No inhibition

Source: EP0533833B1, “PHOSPHOROUS PRODUGS” (priority 1990, dated 1991)
